Measurements taken from patent EP0036357A1, “Antalgic and antiagregant cetonic derivatives of 5,6-diaryl-1,2,4-triazines, usable in the treatment of migraine” (PIERRE FABRE S.A., priority 1980, dated 1981).
Read-outs that look alike come from different tables or passages of the source.

How the values were obtained:
[1] = test system: contorsions à la phényl benzoquinone; experiment: Phenylbenzoquinone writhing test (Siegmund), analgesic activity; assay type: in vivo, souris; settings: po, 0.5 h; dose giving 50 % decrease of writhes; per os, mouse, 30 minutes before i.p. phenylbenzoquinone; read-out: DE50 (the source's name)
Experimental: L'activité sur le test des contorsions à la phényl benzoquinone (selon SIEGMUND et Coll. - J. Pharm. Exptl. Ther. 1957, 119, 453) […] administration du produit per os; la dose est exprimée en mg/kg chez la souris 30 minutes avant l'injection […] sont exprimés en pourcentage de variation du nombre de contorsions; pour les molécules les plus actives, nous avons déterminé la dose qui provoque 50 % de diminution des contorsions DE50. Dans le tableau ci-dessous nous avons répertorié les molécules dont l'activité est supérieure ou é[…] (DE50 ≃ 40).

[2] = Tolerance on repeated administration; assay type: in vivo
[3] = Acute toxicity (LD50) in mice, Miller and Tainter method; settings: in vivo, mouse about 20 g
Text: L'étude de la toxicité a été effectuée chez la souris conventionnelle pesant environ 20 grammes.
Les substances ont été administrées par voie orale et intrapéritonéale. Les doses létales 50 sont exprimées en mg/kg et ont été calculées selon la méthode de MILLER et TAINTER, Proc. Soc. Exper. Biol. Med. 1944, 57, 261.
A titre d'exemple dans le tableau ci-dessous figurent quelques valeurs de doses toxiques provoquant 50 % de mortalité.

[4] = Qualitative solubility in solvents; assay type: physicochemical; settings: for Insoluble dans: solvents in which the compound is insoluble; for Soluble dans: solvents in which the compound is soluble
[5] = ip, intraperitoneal route, read-out: DL50 voie I.P.
[6] = oral route, read-out: DL50 voie orale

Compound | ED50 [1] [mg/kg] | tolérées par administration répétée [2] | LD50 [3, 5] [mg/kg] | LD50 [3, 6] [mg/kg] | Insoluble dans [4] | Soluble dans [4]
COc1ccc(-c2nc(=O)n(CC(C)=O)nc2-c2ccc(OC)cc2)cc1 [ST 753, Oxo-3 acétonyl-2 di(paraméthoxyphényl) 5-6 as triazine] | 15 | les mieux tolérées | > 500 | > 1500 | l'eau, les acides et bases dilués, l'éther | l'éthanol, le benzène, le chlorure de méthylène et le chloroforme
COc1ccc(-c2nc(=O)n(C(C)C(C)=O)nc2-c2ccc(OC)cc2)cc1 (stereo not drawn) [ST 765, Oxo-3 α méthylacétonyl-2 di (paraméthoxyphényl) 5-6 as triazine] | 10 | les mieux tolérées | > 1000 | > 2000 | l'eau, les acides et bases dilués, et l'éther | l'éthanol, le benzène, le chlorure de méthylène et le chloroforme
CC(=O)C(C)n1nc(-c2ccc(N(C)C)cc2)c(-c2ccc(N(C)C)cc2)nc1=O (stereo not shown) [ST 802, Oxo-3αméthylacétonyl-2 di(paradiméthylaminophényl) 5-6 as triazine] | 5 |  |  | > 1500 | l'eau, les bases diluées et l'éther | les acides dilués aqueux, l'éthanol, le benzène, le chlorure de méthylène et le chloroforme
CN(C)c1ccc(-c2nc(=O)n(CC(=O)c3ccccc3)nc2-c2ccc(N(C)C)cc2)cc1 [ST 813, Oxo-3 acétophényl-2 di (paradiméthylaminophényl) 5-6 as triazine] |  |  | ~750 | > 1000 | l'eau, les bases diluées, le benzène, l'éthanol et l'éther | les acides dilués aqueux, le chlorure de méthylène et le chloroforme
COc1ccc(-c2nc(=O)n(CC(=O)c3ccc(O)c(O)c3)nc2-c2ccc(OC)cc2)cc1 [ST 827, Oxo-3 (3,4 dihydroxyphénacyl)-2 di(paraméthoxyphényl) 5-6 as triazine] |  |  |  | > 1000 | l'eau, les acides dilués, le benzène, le chlorure de méthylène et l'éther | les bases diluées et l'éthanol
CN(C)c1ccc(-c2nc(=O)n(CC(=O)c3ccc(O)c(O)c3)nc2-c2ccc(N(C)C)cc2)cc1 [ST 842, Oxo-3 (3,4 dihydroxyphénacyl)-2 di(paradiméthylaminophényl) 5-6 as triazine] |  |  |  | > 1000 | l'eau, le benzène, le chlorure de méthylène, l'éther | les acides et les basés dilués et l'éthanol
COc1ccc(-c2nc(=O)n(CC(=O)c3ccc(Br)cc3)nc2-c2ccc(OC)cc2)cc1 [ST 844, Oxo-3 (p-bromophénacyl)-2 di(paraméthoxyphényl) 5-6 as triazine] |  |  | ~800 | > 2000 | l'eau, les acides et bases dilués | l'éthanol, le benzène, le chlorure de méthylène, le chloroforme
COc1ccc(-c2nc(=O)n(C(C(=O)c3ccccc3)c3ccccc3)nc2-c2ccc(OC)cc2)cc1 (stereo not drawn) [ST 908, Oxo-3 (α phénylacétophénone)-2 di (paraméthoxyphényl)-5-6 as triazine] |  |  | > 500 | > 1000 | l'eau, les acides et les bases dilués | l'éthanol, le chlorure de méthylène, le chloroforme et l'éther
CC(=O)Cn1nc(-c2ccc(N(C)C)cc2)c(-c2ccc(N(C)C)cc2)nc1=O [ST 910, Oxo-3 acétonyl-2 di(paradiméthylaminophényl) 5-6 as triazine] | 4 |  |  | > 1500 | l'eau et les bases diluées, le benzène et l'éther | les acides dilués, l'éthanol, le chlorure de méthylène et le chloroforme
CN(C)c1ccc(-c2nc(=O)n(C(C(=O)c3ccccc3)c3ccccc3)nc2-c2ccc(N(C)C)cc2)cc1 (stereo not drawn) [ST 911, Oxo-3 (α phénylacétophénone)-2 di(paradiméthylaminophényl) 5-6 as triazine] |  |  |  | > 1000 | l'eau, les bases diluées, l'éthanol et l'éther | les acides dilués, le benzène, le chlorure de méthylène et le chloroforme
CC(=O)CCCn1nc(-c2ccc(N(C)C)cc2)c(-c2ccc(N(C)C)cc2)nc1=O [ST 924, Oxo-3 (δ propylméthylcétone)-2 di(p-diméthylaminophényl)-5-6 as triazine] | 7 |  |  | > 1500 |  | 
CCC(=O)CCn1nc(-c2ccc(N(C)C)cc2)c(-c2ccc(N(C)C)cc2)nc1=O [ST 925, Oxo-3 ( δ diéthylcétone)-2 di(paradiméthyaminophényl) 5, 6 as triazine] | 5 |  | > 500 | > 1000 | l'eau, les bases diluées et l'éther | les acides dilués, l'éthanol, le benzène, le chlorure de méthylène et le chloroforme
CCC(=O)CCn1nc(-c2ccc(OC)cc2)c(-c2ccc(OC)cc2)nc1=O [ST 966, Oxo-3 (δ diéthylcétone)-2 di(paraméthoxyphényl)-5, 6 as triazine] |  |  |  | > 2000 | l'eau, les bases et les acides dilués et l'éther | l'éthanol, le benzène, le chlorure de méthylène et le chloroforme
O=C(OCC(O)CO)c1ccccc1Nc1ccnc2cc(Cl)ccc12 (stereo not shown) [glafénine, reference compound] | ~40 |  |  |  |  | 
